Where “and” joins values, the source holds several entries; their conditions need not be identical. Identical values can stand only once.
Tests used:
[1] = system: human respiratory epithelial cells (from nasal polyps); test: Explant culture of respiratory epithelial cells: growth area around explants; format: cell-based; conditions: increasing EGF concentration up to 20 ng/ml; p<0.05
Experimental: (§1) Cultures of respiratory epithelial cells are obtained from nasal polyps by the technique of explants (growth of cells around the explant) and by the technique of dissociated cells cultured in a three-dimensional collagen matrix (collagen lattice).
(§2) The explants are cultured in the presence of varying concentrations (0, 5, 10 and 20 ng/ml) of EGF (EGF from mouse submaxillary glands, ref. E 4127, Sigma). The growth area around the explants is quantified after 3 and 4 days of culture. The percentage of growth area covered with ciliated cells as well as the ciliary beat frequency were measured after 3 days of culture. For the collagen lattice culture technique, the number of cells in culture was quantified up to 11 days after of culture, and this in the absence and in the presence of EGF (10 ng/ml).

[2] = system: human respiratory epithelial cells (from nasal polyps); test: Dissociated respiratory epithelial cells cultured in a collagen lattice: cell number and morphology; format: cell-based
Experimental: as §1, §2

[3] = system: ciliated cells of human respiratory epithelium; test: Functional activity of ciliated cells in explant culture; format: cell-based; conditions: 20 ng/ml of EGF, after 3 days of culture
Experimental: as §1, §2

[4] = system: human respiratory epithelial cells in culture; test: In vitro model of respiratory epithelium wound repair (30 to 50 cells detached by micromanipulator); format: cell-based; conditions: EGF 10 ng/ml
Experimental: (§3) The study of the repair of wounds of the respiratory epithelium was performed on an in vitro model. Thirty to 50 cells are detached from the culture by means of a micromanipulator so as to expose the collagen matrix on which the epithelial cells proliferate. The repair of this injured region is monitored as a function of time on cultures in the presence of EGF (10 ng/ml) or in the absence of EGF. For the technique of culture of dissociated cells in a collagen lattice, the effect of EGF on the retraction of the collagen lattice was studied after 8 days of culture. This retraction is quantified by measuring the area of the collagen lattice.

[5] = system: superficial respiratory epithelial cells; test: Retraction of the collagen lattice by respiratory epithelial cells; format: cell-based, human; conditions: after 8 days of culture in the presence of EGF
Experimental: as §3

[6] = system: surface epithelial cells dissociated from nasal polyp; test: In vitro model of lesion of the respiratory epithelium: repair index; format: cell-based, human; conditions: for repair index: 10 ng/ml
Experimental: Surface epithelial cells dissociated from nasal polyp are cultured on a collagen I matrix in RPMI culture medium supplemented with hydrocortisone,retinoic acid, insulin and EGF (epidermal growth factor). After about 3 days of culture, when the cells have become confluent, the supplemented culture medium is replaced with unsupplemented RPMI medium. After incubating for 12 hours in the presence of unsupplemented medium, the culture is placed on the stage of an inverted microscope equipped with a micromanipulator. A microcapillary, guided by the micromanipulator, makes it possible to detach cells, thus creating a wound with a surface area of about 100,000 μm^2. The unsupplemented culture medium is then replaced with culture medium containing only EGF at different concentrations. Video recordings of the injured culture are then made every hour. Using these video recordings, an image analyser makes it possible to monitor the variation of the surface area of the wound as a function of time. A regression line between the surface area of the wound (expressed in μm^2) and the time (expressed in hours) makes it possible to calculate the slope of the regression line obtained, a slope which corresponds to the decrease in the surface area of the wound per unit of time. The latter parameter corresponds to the repair index (the higher the index, the faster the repair).
Eight nasal polyps were used to culture respiratory epithelial cells (5 culture dishes per polyp). In each of these dishes, the injured cultures are incubated either in the presence of unsupplemented culture medium, or in the presence of culture medium supplemented with EGF at various concentrations (5, 10, 20 or 50 ng/ml). From the variation of the surface area as a function of time (the repair index corresponds to the slope of the regression line between the surface area of the wound and time), we calculated the repair index. This index is then expressed relative to the repair index obtained with the EGF-free culture medium used as control. The results obtained show a systematic increase in the repair index for wounds in the presence of EGF. At a concentration of 5 and 10 ng/ml, EGF stimulates the repair by 38% and 36% respectively. At the concentration of 20 ng/ml, the stimulation is 49%.
This study was carried out under the same experimental conditions as above. The repair index for the wounds was quantified in the presence of unsupplemented culture medium and in the presence of culture medium supplemented either with EGF of mouse submaxillary gland (m-EGF: 10 ng/ml), or with recombinant human EGF (h-EGF: 10 ng/ml).

Row | Substance | growth area around the explants [1] | number of cells ([2]; after 8 days of culture, in the presence of EGF vs without) | rate of cell proliferation ([2]; collagen lattice, EGF 10 ng/ml, compared with cultures without EGF) | formation of three-dimensional structures ([2]; collagen lattice, EGF in the culture medium) | ciliary beat frequency [3] [Hz] | percentage of the growth surface covered with ciliated cells [3] [%] | slope of the regression line (wound repair) [4] | collagen lattice area [5] [mm^2] | repair index [6] [μm^2 /h] | stimulation of the repair (repair index relative to EGF-free control) ([6]; EGF 5 ng/ml) [%] | stimulation of the repair (repair index relative to EGF-free control) ([6]; EGF 10 ng/ml) [%] | stimulation of the repair (repair index relative to EGF-free control) ([6]; EGF 20 ng/ml) | repair index compared with the index obtained with 20 ng/ml of EGF ([6]; EGF 50 ng/ml, p<0.05)
1 | EGF: Epidermal Growth Factor polypeptide from mouse submaxillary glands, ref. E 4127, Sigma | substantial increase in the growth area | twice as high | higher | promotes the formation of tubular type three-dimensional structures | 14.5 | 43 | -71.8 | 660 | 11215 | 38 | 36 | 49% and ~50% | significantly (p<0.05) reduced
2 | h-EGF: recombinant human EGF (Sigma, Ref. E-3264) | – | – | – | – | – | – | – | – | 11492 | – | – | – | –
